The structures appear in SMILES notation.

Targets include D(2) dopamine receptor (Rattus norvegicus, UniProt P61169); D(1A) dopamine receptor (Rattus norvegicus, UniProt P18901); Histamine H1 receptor (Rattus norvegicus, UniProt P31390).
Experiment [1] addresses Gamma-aminobutyric acid (GABA) B receptor 1 (Rattus norvegicus, UniProt Q6MFX8).
Experiment [2] concerns the target Sigma non-opioid intracellular receptor 1 (Cavia porcellus, UniProt Q60492).
For experiment [3], the target named is Gamma-aminobutyric acid receptor subunit alpha-1 (Rattus norvegicus, UniProt P62813).
Experiment [4] addresses T1, Muscarinic acetylcholine receptor M2 (Rattus norvegicus, UniProt P10980).
T1 sequence (P10980 whole entry): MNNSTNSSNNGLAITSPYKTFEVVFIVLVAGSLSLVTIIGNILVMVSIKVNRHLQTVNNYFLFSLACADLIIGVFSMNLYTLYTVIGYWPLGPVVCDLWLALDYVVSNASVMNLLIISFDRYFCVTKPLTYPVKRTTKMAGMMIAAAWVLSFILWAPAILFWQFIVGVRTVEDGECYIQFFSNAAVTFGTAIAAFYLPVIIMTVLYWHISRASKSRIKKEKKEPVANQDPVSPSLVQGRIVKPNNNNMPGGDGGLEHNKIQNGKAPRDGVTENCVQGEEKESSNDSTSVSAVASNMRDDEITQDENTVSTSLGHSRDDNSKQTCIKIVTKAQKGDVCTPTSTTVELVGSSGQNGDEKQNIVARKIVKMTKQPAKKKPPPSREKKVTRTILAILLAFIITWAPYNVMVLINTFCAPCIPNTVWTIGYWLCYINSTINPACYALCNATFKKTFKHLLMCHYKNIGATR

The target of experiment [5] is Beta-2 adrenergic receptor (Rattus norvegicus, UniProt P10608).
Beta-2 adrenergic receptor, sequence (P10608 whole entry): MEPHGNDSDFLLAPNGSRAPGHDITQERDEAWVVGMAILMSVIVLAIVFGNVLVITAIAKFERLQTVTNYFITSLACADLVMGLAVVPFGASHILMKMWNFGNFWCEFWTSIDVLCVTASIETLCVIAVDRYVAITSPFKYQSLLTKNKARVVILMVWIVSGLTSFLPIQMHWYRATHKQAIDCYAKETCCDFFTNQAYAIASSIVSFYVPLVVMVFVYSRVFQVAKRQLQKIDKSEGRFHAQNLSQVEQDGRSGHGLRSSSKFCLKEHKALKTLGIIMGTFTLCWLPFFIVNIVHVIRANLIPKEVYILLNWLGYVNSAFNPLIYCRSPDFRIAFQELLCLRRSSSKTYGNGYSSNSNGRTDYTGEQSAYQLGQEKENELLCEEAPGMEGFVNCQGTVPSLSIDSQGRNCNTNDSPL

Histamine H1 receptor, sequence (P31390 whole entry): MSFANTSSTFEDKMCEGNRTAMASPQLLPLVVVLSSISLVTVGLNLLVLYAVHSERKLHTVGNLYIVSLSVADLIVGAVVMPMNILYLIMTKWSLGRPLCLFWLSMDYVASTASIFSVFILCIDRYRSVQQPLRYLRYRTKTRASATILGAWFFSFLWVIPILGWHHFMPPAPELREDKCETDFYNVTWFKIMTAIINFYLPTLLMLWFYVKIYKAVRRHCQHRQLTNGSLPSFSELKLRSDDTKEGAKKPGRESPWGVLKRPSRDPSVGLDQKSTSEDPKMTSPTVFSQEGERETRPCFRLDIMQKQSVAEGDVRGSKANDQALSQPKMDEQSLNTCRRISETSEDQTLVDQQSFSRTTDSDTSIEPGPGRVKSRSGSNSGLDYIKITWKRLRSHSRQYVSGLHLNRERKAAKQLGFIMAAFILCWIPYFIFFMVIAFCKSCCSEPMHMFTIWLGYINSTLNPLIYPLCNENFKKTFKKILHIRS
Gamma-aminobutyric acid receptor subunit alpha-1, sequence (P62813 whole entry): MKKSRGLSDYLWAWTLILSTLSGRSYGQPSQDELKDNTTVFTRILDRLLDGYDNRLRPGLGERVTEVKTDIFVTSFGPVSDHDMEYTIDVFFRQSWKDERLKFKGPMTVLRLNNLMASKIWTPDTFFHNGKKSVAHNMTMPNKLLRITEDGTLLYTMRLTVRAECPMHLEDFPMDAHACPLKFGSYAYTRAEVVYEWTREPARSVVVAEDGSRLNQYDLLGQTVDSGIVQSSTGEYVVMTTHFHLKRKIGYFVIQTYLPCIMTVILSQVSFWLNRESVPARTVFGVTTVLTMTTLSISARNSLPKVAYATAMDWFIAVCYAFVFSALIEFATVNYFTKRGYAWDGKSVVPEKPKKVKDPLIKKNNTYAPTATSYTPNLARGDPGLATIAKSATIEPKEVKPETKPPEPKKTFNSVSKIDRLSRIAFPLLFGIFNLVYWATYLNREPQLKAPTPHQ
D(1A) dopamine receptor, sequence (P18901 whole entry): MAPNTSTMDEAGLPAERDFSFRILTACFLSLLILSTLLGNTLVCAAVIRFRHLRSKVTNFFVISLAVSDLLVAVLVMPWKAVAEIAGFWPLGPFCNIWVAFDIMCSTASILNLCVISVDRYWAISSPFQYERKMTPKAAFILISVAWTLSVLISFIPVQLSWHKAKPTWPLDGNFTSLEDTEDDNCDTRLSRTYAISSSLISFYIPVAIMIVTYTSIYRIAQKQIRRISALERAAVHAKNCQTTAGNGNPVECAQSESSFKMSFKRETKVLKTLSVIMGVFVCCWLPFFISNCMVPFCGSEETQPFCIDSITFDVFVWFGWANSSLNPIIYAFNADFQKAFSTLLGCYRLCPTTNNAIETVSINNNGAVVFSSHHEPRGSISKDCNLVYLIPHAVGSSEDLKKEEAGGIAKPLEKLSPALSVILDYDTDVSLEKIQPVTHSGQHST
Gamma-aminobutyric acid (GABA) B receptor 1, sequence (Q6MFX8 whole entry): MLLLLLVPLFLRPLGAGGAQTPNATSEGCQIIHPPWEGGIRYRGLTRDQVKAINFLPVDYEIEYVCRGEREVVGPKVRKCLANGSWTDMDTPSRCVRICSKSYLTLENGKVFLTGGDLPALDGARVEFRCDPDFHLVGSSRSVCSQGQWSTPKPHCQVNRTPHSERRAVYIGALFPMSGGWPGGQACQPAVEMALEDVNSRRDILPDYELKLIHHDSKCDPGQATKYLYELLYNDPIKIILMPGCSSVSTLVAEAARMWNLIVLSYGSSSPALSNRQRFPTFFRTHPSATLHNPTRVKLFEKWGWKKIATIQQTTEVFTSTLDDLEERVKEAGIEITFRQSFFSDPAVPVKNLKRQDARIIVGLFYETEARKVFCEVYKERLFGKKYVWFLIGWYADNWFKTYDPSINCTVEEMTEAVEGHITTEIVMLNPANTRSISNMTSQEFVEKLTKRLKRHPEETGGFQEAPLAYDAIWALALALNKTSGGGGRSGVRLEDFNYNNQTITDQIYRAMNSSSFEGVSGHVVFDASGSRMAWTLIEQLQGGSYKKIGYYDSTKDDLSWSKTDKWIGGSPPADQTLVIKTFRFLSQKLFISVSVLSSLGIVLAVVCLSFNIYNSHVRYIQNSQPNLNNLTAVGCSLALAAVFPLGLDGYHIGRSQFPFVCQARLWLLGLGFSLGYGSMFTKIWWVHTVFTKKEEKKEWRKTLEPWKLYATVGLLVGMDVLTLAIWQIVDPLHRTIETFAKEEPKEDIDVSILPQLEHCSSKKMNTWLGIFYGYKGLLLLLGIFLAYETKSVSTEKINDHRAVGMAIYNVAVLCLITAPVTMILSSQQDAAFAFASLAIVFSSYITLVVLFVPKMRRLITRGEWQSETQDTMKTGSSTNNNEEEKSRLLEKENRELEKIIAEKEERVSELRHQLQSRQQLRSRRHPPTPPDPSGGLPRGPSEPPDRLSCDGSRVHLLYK
Sigma non-opioid intracellular receptor 1, sequence (Q60492 whole entry): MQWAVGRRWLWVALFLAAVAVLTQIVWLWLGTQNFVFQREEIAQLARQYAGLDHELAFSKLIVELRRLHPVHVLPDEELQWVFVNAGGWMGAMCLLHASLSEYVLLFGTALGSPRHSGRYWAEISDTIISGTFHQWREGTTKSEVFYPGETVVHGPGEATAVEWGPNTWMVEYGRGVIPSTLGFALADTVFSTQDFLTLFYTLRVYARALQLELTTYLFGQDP
D(2) dopamine receptor, sequence (P61169 whole entry): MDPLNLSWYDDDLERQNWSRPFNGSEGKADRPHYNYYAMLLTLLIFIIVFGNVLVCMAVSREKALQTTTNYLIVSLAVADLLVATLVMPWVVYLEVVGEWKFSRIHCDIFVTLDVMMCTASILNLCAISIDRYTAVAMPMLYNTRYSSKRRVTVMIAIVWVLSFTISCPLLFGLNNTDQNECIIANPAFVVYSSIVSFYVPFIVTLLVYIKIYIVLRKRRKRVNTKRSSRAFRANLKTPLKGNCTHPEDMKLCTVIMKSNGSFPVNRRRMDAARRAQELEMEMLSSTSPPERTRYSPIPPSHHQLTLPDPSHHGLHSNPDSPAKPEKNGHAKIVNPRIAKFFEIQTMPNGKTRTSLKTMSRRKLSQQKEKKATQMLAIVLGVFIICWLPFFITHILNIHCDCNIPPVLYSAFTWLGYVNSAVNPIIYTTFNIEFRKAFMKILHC

For the compound `CCN1CCN(c2cc(-c3ccc(F)cc3)c3c(n2)CCCCCC3)CC1` [AD-5423], the Ki was greater than 10 µM in experiment [1]; 0.0148 µM at D(2) dopamine receptor; 0.286 µM in experiment [2]; greater than 10 µM in experiment [3]; 2.3 µM in experiment [4]; 2.87 µM on D(1A) dopamine receptor. Also, the Ki on Histamine H1 receptor was 3.01 µM; in experiment [5] it was greater than 10 µM.

Usually Ki stands for the dissociation constant of the complex between target and ligand, obtained from inhibition or displacement.

The values are drawn from BindingDB's records for PubMed 8093723 (Dainippon Pharmaceutical, 1993).
